Assay results from ChEMBL document CHEMBL4814018, “Rationally designed TNF-α inhibitors: Identification of promising cytotoxic agents” (Bioorg Med Chem Lett, 2021).
pIC50: −log10 of the molar value. The source made the active and inactive calls. No cut-off for these calls is given here.

Assays:
[1] = system: BV-2; assay: Cytotoxicity against mouse BV2 cells incubated for 48 hrs by MTT assay; assay type: cell-based; conditions: BV-2, 48 h
[2] = Therapeutic index, ratio of LC50 for human Panel NCI-60 (60 carcinoma cell lines) to GI50 for human Panel NCI-60 (60 carcinoma cell lines); assay type: functional
[3] = system: BV-2; assay: Antiinflammatory activity against mouse BV2 cells assessed as decrease in LPS-induced NO production at 1 to 5 uM pretreated with compound followed by LPS stimulation incubated for 4 to 48 hrs by enzyme immunoassay; assay type: functional, cell-based; conditions: dose 1-5 µM, time 4-48 hrs
[4] = system: BV-2; assay: Antiinflammatory activity against mouse BV2 cells assessed as inhibition of LPS-induced TNFalpha production at 1 uM by enzyme immunoassay; assay type: functional; design: scale not given: the % may be the effect or the level left
[5] = system: BV-2; assay: Antiinflammatory activity against mouse BV2 cells assessed as reduction in LPS-induced IL6 production at 1 uM by enzyme immunoassay; assay type: functional, cell-based
[6] = system: RPMI-8226; assay: Growth inhibition of human RPMI8226 cells at 10 uM incubated for 48 hrs by sulforhodamine B assay relative to control; assay type: functional; conditions: read-out: GI
[7] = system: NCI-H226; assay: Growth inhibition of human NCI-H226 cells at 10 uM incubated for 48 hrs by sulforhodamine B assay relative to control; assay type: functional; conditions: read-out: GI
[8] = system: NCI-H460; assay: Growth inhibition of human NCI-H460 cells at 10 uM incubated for 48 hrs by sulforhodamine B assay relative to control; assay type: functional; conditions: read-out: GI
[9] = system: HCT-116; assay: Growth inhibition of human HCT-116 cells at 10 uM incubated for 48 hrs by sulforhodamine B assay relative to control; assay type: functional; conditions: read-out: GI
[10] = system: SW-620; assay: Growth inhibition of human SW-620 cells at 10 uM incubated for 48 hrs by sulforhodamine B assay relative to control; assay type: functional; conditions: read-out: GI
[11] = system: UACC-257; assay: Growth inhibition of human UACC-257 cells at 10 uM incubated for 48 hrs by sulforhodamine B assay relative to control; assay type: functional; conditions: read-out: GI
[12] = system: UACC-62; assay: Growth inhibition of human UACC-62 cells at 10 uM incubated for 48 hrs by sulforhodamine B assay relative to control; assay type: functional; conditions: read-out: GI
[13] = system: IGROV-1; assay: Growth inhibition of human IGROV-1 cells at 10 uM incubated for 48 hrs by sulforhodamine B assay relative to control; assay type: functional; conditions: read-out: GI
[14] = system: OVCAR-3; assay: Growth inhibition of human OVCAR-3 cells at 10 uM incubated for 48 hrs by sulforhodamine B assay relative to control; assay type: functional; conditions: read-out: GI
[15] = system: OVCAR-4; assay: Growth inhibition of human OVCAR-4 cells at 10 uM incubated for 48 hrs by sulforhodamine B assay relative to control; assay type: functional; conditions: read-out: GI
[16] = system: OVCAR-5; assay: Growth inhibition of human OVCAR-5 cells at 10 uM incubated for 48 hrs by sulforhodamine B assay relative to control; assay type: functional; conditions: read-out: GI
[17] = system: A498; assay: Growth inhibition of human A498 cells at 10 uM incubated for 48 hrs by sulforhodamine B assay relative to control; assay type: functional; conditions: read-out: GI
[18] = system: CAKI-1; assay: Growth inhibition of human CAKI-1 cells at 10 uM incubated for 48 hrs by sulforhodamine B assay relative to control; assay type: functional; conditions: read-out: GI
[19] = system: TK-10; assay: Growth inhibition of human TK-10 cells at 10 uM incubated for 48 hrs by sulforhodamine B assay relative to control; assay type: functional; conditions: read-out: GI
[20] = system: MCF7; assay: Growth inhibition of human MCF7 cells at 10 uM incubated for 48 hrs by sulforhodamine B assay relative to control; assay type: functional; conditions: read-out: GI
[21] = system: T47D; assay: Growth inhibition of human T47D cells at 10 uM incubated for 48 hrs by sulforhodamine B assay relative to control; assay type: functional; conditions: read-out: GI
[22] = system: MDA-MB-468; assay: Growth inhibition of human MDA-MB-468 cells at 10 uM incubated for 48 hrs by sulforhodamine B assay relative to control; assay type: functional; conditions: read-out: GI
[23] = system: MDA-MB-231; assay: Growth inhibition of human MDA-MB-231 cells at 10 uM incubated for 48 hrs by sulforhodamine B assay relative to control; assay type: functional; conditions: read-out: GI
[24] = system: K562; assay: Growth inhibition of human K562 cells at 10 uM incubated for 48 hrs by sulforhodamine B assay relative to control; assay type: functional; conditions: read-out: GI
[25] = system: SR; assay: Growth inhibition of human SR cells at 10 uM incubated for 48 hrs by sulforhodamine B assay relative to control; assay type: functional; conditions: read-out: GI
[26] = system: HOP-62; assay: Growth inhibition of human HOP-62 cells at 10 uM incubated for 48 hrs by sulforhodamine B assay relative to control; assay type: functional; conditions: read-out: GI
[27] = system: HOP-92; assay: Growth inhibition of human HOP-92 cells at 10 uM incubated for 48 hrs by sulforhodamine B assay relative to control; assay type: functional; conditions: read-out: GI
[28] = system: SF-295; assay: Growth inhibition of human SF-295 cells at 10 uM incubated for 48 hrs by sulforhodamine B assay relative to control; assay type: functional; conditions: read-out: GI
[29] = system: U-251; assay: Growth inhibition of human U-251 cells at 10 uM incubated for 48 hrs by sulforhodamine B assay relative to control; assay type: functional; conditions: read-out: GI
[30] = system: SK-MEL-2; assay: Growth inhibition of human SK-MEL-2 cells at 10 uM incubated for 48 hrs by sulforhodamine B assay relative to control; assay type: functional; conditions: read-out: GI
[31] = system: SK-OV-3; assay: Growth inhibition of human SK-OV-3 cells at 10 uM incubated for 48 hrs by sulforhodamine B assay relative to control; assay type: functional; conditions: read-out: GI
[32] = system: UO-31; assay: Growth inhibition of human UO-31 cells at 10 uM incubated for 48 hrs by sulforhodamine B assay relative to control; assay type: functional; conditions: read-out: GI
[33] = system: RPMI-8226; assay: Growth inhibition of human RPMI-8226 cells incubated for 48 hrs by sulforhodamine B assay; assay type: functional; conditions: dose 10 µM
[34] = system: NCI-H226; assay: Growth inhibition of human NCI-H226 cells incubated for 48 hrs by sulforhodamine B assay; assay type: functional
[35] = system: NCI-H460; assay: Growth inhibition of human NCI-H460 cells incubated for 48 hrs by sulforhodamine B assay; assay type: functional
[36] = system: HCT-116; assay: Growth inhibition of human HCT-116 cells incubated for 48 hrs by sulforhodamine B assay; assay type: functional
[37] = system: SW-620; assay: Growth inhibition of human SW-620 cells incubated for 48 hrs by sulforhodamine B assay; assay type: functional
[38] = system: UACC-257; assay: Growth inhibition of human UACC-257 cells incubated for 48 hrs by sulforhodamine B assay; assay type: functional
[39] = system: UACC-62; assay: Growth inhibition of human UACC-62 cells incubated for 48 hrs by sulforhodamine B assay; assay type: functional
[40] = system: IGROV-1; assay: Growth inhibition of human IGROV-1 cells incubated for 48 hrs by sulforhodamine B assay; assay type: functional
[41] = system: OVCAR-3; assay: Growth inhibition of human OVCAR-3 cells incubated for 48 hrs by sulforhodamine B assay; assay type: functional
[42] = system: OVCAR-4; assay: Growth inhibition of human OVCAR-4 cells incubated for 48 hrs by sulforhodamine B assay; assay type: functional
[43] = system: OVCAR-5; assay: Growth inhibition of human OVCAR-5 cells incubated for 48 hrs by sulforhodamine B assay; assay type: functional
[44] = system: A498; assay: Growth inhibition of human A498 cells incubated for 48 hrs by sulforhodamine B assay; assay type: functional
[45] = system: CAKI-1; assay: Growth inhibition of human CAKI-1 cells incubated for 48 hrs by sulforhodamine B assay; assay type: functional
[46] = system: TK-10; assay: Growth inhibition of human TK-10 cells incubated for 48 hrs by sulforhodamine B assay; assay type: functional
[47] = system: MCF7; assay: Growth inhibition of human MCF7 cells incubated for 48 hrs by sulforhodamine B assay; assay type: functional
[48] = system: T47D; assay: Growth inhibition of human T47D cells incubated for 48 hrs by sulforhodamine B assay; assay type: functional
[49] = system: MDA-MB-468; assay: Growth inhibition of human MDA-MB-468 cells incubated for 48 hrs by sulforhodamine B assay; assay type: functional
[50] = system: MDA-MB-231; assay: Growth inhibition of human MDA-MB-231 cells incubated for 48 hrs by sulforhodamine B assay; assay type: functional
[51] = system: K562; assay: Growth inhibition of human K562 cells incubated for 48 hrs by sulforhodamine B assay; assay type: functional
[52] = system: SR; assay: Growth inhibition of human SR cells incubated for 48 hrs by sulforhodamine B assay; assay type: functional
[53] = system: HOP-62; assay: Growth inhibition of human HOP-62 cells incubated for 48 hrs by sulforhodamine B assay; assay type: functional
[54] = system: HOP-92; assay: Growth inhibition of human HOP-92 cells incubated for 48 hrs by sulforhodamine B assay; assay type: functional
[55] = system: SF-295; assay: Growth inhibition of human SF-295 cells incubated for 48 hrs by sulforhodamine B assay; assay type: functional
[56] = system: U-251; assay: Growth inhibition of human U-251 cells incubated for 48 hrs by sulforhodamine B assay; assay type: functional
[57] = system: SK-MEL-2; assay: Growth inhibition of human SK-MEL-2 cells incubated for 48 hrs by sulforhodamine B assay; assay type: functional
[58] = system: SK-OV-3; assay: Growth inhibition of human SK-OV-3 cells incubated for 48 hrs by sulforhodamine B assay; assay type: functional
[59] = system: UO-31; assay: Growth inhibition of human UO-31 cells incubated for 48 hrs by sulforhodamine B assay; assay type: functional
[60] = system: Panel NCI-60 (60 carcinoma cell lines); assay: Growth inhibition of human Panel NCI-60 (60 carcinoma cell lines) incubated for 48 hrs by sulforhodamine B assay; assay type: functional
[61] = read-out: LC50 (the source's name)

O=C1COCCN1c1ccc(N2C(=O)C(Cl)C2c2cn(Cc3ccc(F)cc3)c3ccccc23)cc1 (centres undefined)
pIC50 [1]: < 5.00

COc1cccc2c1C(=O)c1c(O)c3c(c(O)c1C2=O)C[C@@](O)(C(=O)CO)C[C@@H]3O[C@H]1C[C@H](N)[C@H](O)[C@H](C)O1 [DOXORUBICIN]
TI [2]: 134

C#CCn1cc(C2C(Cl)C(=O)N2c2ccc(N3CCOCC3=O)cc2)c2ccccc21 (centres undefined)
Activity [3]: Active
pIC50 [1]: < 5.00

O=C1COCCN1c1ccc(N2C(=O)C(Cl)C2c2cn(Cc3ccc(Cl)cc3)c3ccccc23)cc1 (centres undefined)
pIC50 [1]: < 5.00

O=C1COCCN1c1ccc(N2C(=O)C(Cl)C2c2cn(Cc3ccccc3)c3ccccc23)cc1 (centres undefined)
pIC50 [1]: < 5.00

O=C1COCCN1c1ccc(NCc2cn(Cc3ccc(Cl)cc3)c3ccccc23)cc1
Activity [4]: 75%
Activity [5]: Active
Activity [3]: Active
inhibition of growth at 10 µM [6]: 95%
inhibition of growth at 10 µM [7]: 93%
inhibition of growth at 10 µM [8]: 93%
inhibition of growth at 10 µM [9]: 96%
inhibition of growth at 10 µM [10]: 73%
inhibition of growth at 10 µM [11]: 100%
inhibition of growth at 10 µM [12]: 100%
inhibition of growth at 10 µM [13]: 100%
inhibition of growth at 10 µM [14]: 96%
inhibition of growth at 10 µM [15]: 94%
inhibition of growth at 10 µM [16]: 100%
inhibition of growth at 10 µM [17]: 100%
inhibition of growth at 10 µM [18]: 100%
inhibition of growth at 10 µM [19]: 100%
inhibition of growth at 10 µM [20]: 96%
inhibition of growth at 10 µM [21]: 95%
inhibition of growth at 10 µM [22]: 100%
inhibition of growth at 10 µM [23]: 77%
inhibition of growth at 10 µM [24]: 94%
inhibition of growth at 10 µM [25]: 87%
inhibition of growth at 10 µM [26]: 83%
inhibition of growth at 10 µM [27]: 90%
inhibition of growth at 10 µM [28]: 85%
inhibition of growth at 10 µM [29]: 89%
inhibition of growth at 10 µM [30]: 89%
inhibition of growth at 10 µM [31]: 91%
inhibition of growth at 10 µM [32]: 92%
GI50 [33]: 2100 nM
GI50 [34]: 150 nM
CC50 [34, 61]: 3600 nM
GI50 [35]: 260 nM
GI50 [36]: 240 nM
GI50 [37]: 2200 nM
GI50 [38]: 270 nM
GI50 [39]: 390 nM
GI50 [40]: 250 nM
GI50 [41]: 1200 nM
GI50 [42]: 480 nM
GI50 [43]: 180 nM
CC50 [43, 61]: 9600 nM
GI50 [44]: 30 nM
CC50 [44, 61]: 400 nM
GI50 [45]: 50 nM
CC50 [45, 61]: > 100000 nM
GI50 [46]: 140 nM
CC50 [46, 61]: > 100000 nM
GI50 [47]: 290 nM
GI50 [48]: 260 nM
GI50 [49]: 100 nM
CC50 [49, 61]: 800 nM
GI50 [50]: 4500 nM
GI50 [51]: 1800 nM
GI50 [52]: 3000 nM
GI50 [53]: 1000 nM
GI50 [54]: 1600 nM
GI50 [55]: 1800 nM
GI50 [56]: 1200 nM
GI50 [57]: 2180 nM
GI50 [58]: 2290 nM
GI50 [59]: 2080 nM
GI50 [60]: 2090 nM
TGI [60]: 25100 nM
CC50 [60, 61]: 70800 nM
TI [2]: 34
pIC50 [1]: < 5.00
